Numbered stars: 1 amine (or outer) side, 2 acyl side, 3 side chain; on linkers, the order of the positions; unused ones are H or OH. Bridge positions count the residues as written; N and C are the ends. Peptide text beside a SMILES is read from it. I, II: the chains in the order shown. Rhodamine110 = O=C1OC2(c3ccc(N[*:1])cc3Oc3cc(N[*:2])ccc32)c2ccccc21
Assays:
[1] = system: LYMPHOCYTES; experiment: Disease to normal ratio of enzyme activity, lymphocytes (Table 5); assay type: cell-based, human
From the text: (§1) A normal in house adult donor pool was drawn, recording sex and determining that no known disease state was present at the time of sample draw. Criteria for rejecting samples included patients under medication, patients with infection or inflammation of any type, colds and flu as well as any known medical illness such as cancer, heart ailment and high blood pressure. A donor list of 75 patients has been developed and a mean and 2 sd range established. A subgroup of "super normals" was developed from this list by examining the 75 patients to determine which group falls closest to the mean for all enzymes in all cell types tested. These patients were used as the "wellness index" or best group of "normalcy" patients. If a study required the use of children or newborns then this same format was used to develop a data base for these age groups.

[2] = system: MONOCYTES; experiment: Disease to normal ratio of enzyme activity, monocytes (Table 5); assay type: cell-based, human
From the text: as §1

[3] = Inflam. Bowel Dis., monocytes section

Row | SMILES | Ratio of disease to normal ([1]; Dermatomyositis) | Ratio of disease to normal ([1]; Inflam. Bowel Dis.) | Ratio of disease to normal ([1]; JRA) | Ratio of disease to normal ([1]; Kawasaki's) | Ratio of disease to normal ([1]; Lupus) | Ratio of disease to normal ([1]; Rheumatic Fever) | Ratio of disease to normal [2, 3] | Ratio of disease to normal ([2]; JRA, monocytes) | Ratio of disease to normal ([2]; Kawasaki's, monocytes) | Ratio of disease to normal ([2]; Lupus, monocytes) | Ratio of disease to normal ([2]; Rheumatic Fever, monocytes) | Ratio of disease to normal ([2]; Dermatomyositis, monocytes)
1 | C[C@H](N)C(=O)Nc1ccc2c(c1)Oc1cc(NC(=O)[C@H](C)N)ccc1C21OC(=O)c2ccccc21 [ALA, (Ala)2 Rho 110] | 1.16 | 1.53 | 1.59 | 1.05 | 1.16 | 1.18 | 1.43 | 1.31 | 1.36 | 6.17 | 1.08 | 
2 | O=C1OC2(c3ccc(OP(=O)(O)O)cc3Oc3cc(OP(=O)(O)O)ccc32)c2ccccc21 [DPO4, (PO4)2 fluorescein] |  |  |  |  |  |  |  | 1.13 |  |  | 1.09 | 
3 | CC(=O)Oc1ccc2c(c1)Oc1cc(OC(C)=O)ccc1C21OC(=O)c2ccccc21 [FDA, fluorescein diacetate, reference compound] | 1.06 |  | 1.17 |  | 1.01 |  |  | 1.55 |  | 1.01 |  | 
4 | CC(=O)Oc1ccc2c(c1)Oc1cc(OC(C)=O)ccc1C21OC(=O)c2ccccc21 [FDA-NAF, reference compound] | 1.14 | 0.89 | 0.21 | 0.30 | 0.74 | 0.97 | 1.11 | 0.35 | 0.58 | 0.83 | 0.89 | 1.03
5 | C[C@H](NC(=O)CNC(=O)[C@H](Cc1ccccc1)NC(=O)CN)C(=O)Nc1ccc2c(c1)Oc1cc(NC(=O)[C@H](C)NC(=O)CNC(=O)[C@H](Cc3ccccc3)NC(=O)CN)ccc1C21OC(=O)c2ccccc21 [GFGA, (Gly-Phe-Gly-Ala)2 Rho 110] (I: H-GFGA / II: H-GFGA; linker I:C-II:C via Rhodamine110) | 2.14 | 2.16 | 2.03 | 2.15 | 1.25 | 2.14 | 3.42 | 2.29 | 1.77 | 2.18 | 1.36 | 2.01
6 | NCC(=O)Nc1ccc2c(c1)Oc1cc(NC(=O)CN)ccc1C21OC(=O)c2ccccc21 [GLY, (Gly)2 Rho 110] |  | 1.97 |  | 1.94 | 1.64 | 2.09 | 1.84 | 1.11 | 3.83 |  | 2.06 | 1.01
7 | C[C@H](NC(=O)[C@@H](N)CCCCN)C(=O)Nc1ccc2c(c1)Oc1cc(NC(=O)[C@H](C)NC(=O)[C@@H](N)CCCCN)ccc1C21OC(=O)c2ccccc21 [KA, (Lys-Ala)2 Rho 110] | 1.39 | 1.75 |  | 1.53 | 1.93 | 1.19 | 1.95 |  | 2.22 | 6.93 | 2.39 | 1.04
8 | C[C@H](NC(=O)[C@@H](N)CCCCN)C(=O)Nc1ccc2c(c1)Oc1cc(NC(=O)[C@H](C)NC(=O)[C@@H](N)CCCCN)ccc1C21OC(=O)c2ccccc21 [KA-M, (Lys-Ala)2 Rho 110] | 1.93 | 1.63 | 1.46 | 1.32 | 1.06 | 2.07 |  | 12.14 | 7.08 | 14.08 | 15.36 | 1.55
9 | N=C(N)NCCC[C@H](N)C(=O)NCC(=O)N[C@@H](CCC(=O)O)C(=O)N[C@@H](CO)C(=O)Nc1ccc2c(c1)Oc1cc(NC(=O)[C@H](CO)NC(=O)[C@H](CCC(=O)O)NC(=O)CNC(=O)[C@@H](N)CCCNC(=N)N)ccc1C21OC(=O)c2ccccc21 (stereo partly drawn) [RGES, (Arg-Gly-Glu-Ser)2 Rho 110] (I: H-RGES / II: H-RGES; linker I:C-II:C via Rhodamine110) | 2.06 | 1.96 | 1.43 | 1.43 | 1.84 | 2.04 | 6.02 | 3.98 | 4.65 | 3.03 | 6.52 | 5.22
10 | CC(C)[C@H](N)C(=O)N[C@@H](CCCCN)C(=O)Nc1ccc2c(c1)Oc1cc(NC(=O)[C@H](CCCCN)NC(=O)[C@@H](N)C(C)C)ccc1C21OC(=O)c2ccccc21 [VK, (Val-Lys)2 Rho 110] | 1.39 | 1.08 |  | 1.19 | 1.25 |  | 3.08 | 5.94 | 5.38 | 1.64 | 1.32 | 1.42
11 | CC(C)[C@H](N)C(=O)N[C@@H](CCCCN)C(=O)Nc1ccc2c(c1)Oc1cc(NC(=O)[C@H](CCCCN)NC(=O)[C@@H](N)C(C)C)ccc1C21OC(=O)c2ccccc21 [VK-M, (Val-Lys)2 Rho 110 (modified)] |  |  | 7.71 |  |  |  | 1.41 | 3.49 |  | 11.37 | 8.67 | 3.45
12 | O=C(NCC(=O)N1CCC[C@H]1C(=O)Nc1ccc2c(c1)Oc1cc(NC(=O)[C@@H]3CCCN3C(=O)CNC(=O)OCc3ccccc3)ccc1C21OC(=O)c2ccccc21)OCc1ccccc1 [Z-GP, (carbobenzyloxycarbonyl-Gly-Pro)2 Rho 110] | 1.73 | 1.73 | 1.29 |  | 1.93 | 3.23 | 1.64 | 1.34 | 4.06 | 1.88 | 3.56 | 
13 | O=C(NCC(=O)N1CCC[C@H]1C(=O)Nc1ccc2c(c1)Oc1cc(NC(=O)[C@@H]3CCCN3C(=O)CNC(=O)OCc3ccccc3)ccc1C21OC(=O)c2ccccc21)OCc1ccccc1 [Z-GP-M, (carbobenzyloxycarbonyl-Gly-Pro)2 Rho 110 (modified)] | 3.45 |  |  | 3.44 | 2.09 | 4.09 | 3.33 | 1.79 | 4.47 | 1.92 | 2.99 | 3.05
